Experimental findings from patent publication US6673794B2, “Substituted aminomethyl-phenyl-cyclohexane derivatives” (Gruenenthal GmbH, priority 2000, dated 2004) are described below.

The test system of this experiment is Male NMRI mice. Put plainly: phenylquinone-induced writhing test in mice. It is filed as in vivo. The following applies: 10 minutes before phenylquinone i.p., writhing counted 5-20 minutes after phenylquinone; for inhibition in vivo at 10 mg/kg: Mus musculus, iv, 10 mg/kg i.v., read-out: % inhibition of the writhing reactions (10 mg/kg i.v.); for % inhibition of the writhing reactions (10 mg/kg i.v.): mouse writhing test. As to the method:
The antinociceptive activity of the compounds according to the invention was investigated in mice in the phenylquinone-induced writhing test, modified by I.C. Hendershot, J. Forsaith, J. Pharmacol. Exp. Ther. 125, 237-240 (1959). Male NMRI mice weighing 25-30 g were used. Groups of 10 animals per substance dose received 0.3 ml/mouse of a 0.02% aqueous solution of phenylquinone (phenylbenzoquinone, Sigma, Deisenhofen; preparation of the solution with the addition of 5% ethanol and storage in a water bath at 45° C.) administered intraperitoneally 10 minutes after intravenous administration of a compound according to the invention. The animals were placed individually in observation cages. The number of pain-induced stretching movements (so-called writhing reactions, that is straightening of the body with stretching of the hind extremities) was counted by means of a push-button counter for 5-20 minutes after the administration of phenylquinone. Animals which received physiological saline solution i.v. and phenylquinone […]. were also run as a control.
All substances were tested in the standard dose of 10 mg/kg. The percentage inhibition (% inhibition) of the writhing reactions by a substance was calculated according to the following equation:
% inhibition=100−(WRtreated animals/WRcontrol×100)
On the technique in general: In writhing tests, fewer writhes than in controls are read as antinociception.

In the case of `COC(=O)c1cccc(C=C2CCC(CN(C)C)C(c3cccc(OC)c3)C2)c1` (racemic) [Compound 8, rac-trans-E-3-[4-dimethylaminomethyl-3-(3-methoxy-phenyl)-cyclohexylidenemethyl]-benzoic acid methyl ester], the inhibition in vivo at 10 mg/kg came out at 98%. On the same count and under the same terms, the result for `COc1cccc([C@@H]2C/C(=C\c3cccc(C(=O)O)c3)CC[C@H]2CN(C)C)c1` (racemic) [Compound 17, rac-trans-Z-3-[4-Dimethylaminomethyl-3-(3-methoxy-phenyl)-cyclohexylidenemethyl]-benzoic acid] reads 85%; that for `COc1cccc([C@@H]2C/C(=C/c3cccc(C(=O)O)c3)CC[C@H]2CN(C)C)c1` (racemic) [Compound 18, rac-trans-E-3-[4-Dimethylaminomethyl-3-(3-methoxy-phenyl)-cyclohexylidenemethyl]-benzoic acid], 100%; that for `CN(C)C[C@@H]1CC/C(=C\c2cccc(CO)c2)C[C@H]1c1cccc(O)c1` (racemic) [Compound 19, rac-trans-E-3-[2-dimethylaminomethyl-5-(3-hydroxymethyl-benzylidene)-cyclohexyl]-phenol], 82%. The same measure, in the same setting: the result for `CN(C)C[C@@H]1CC/C(=C\c2ccccc2)C[C@H]1c1cccc(O)c1` (racemic) [Compound 20, rac-trans-E-3-(5-benzylidene-2-dimethylaminomethyl-cyclohexyl)-phenol] reads 84%; that for `CN(C)C[C@@H]1CC/C(=C/c2ccccc2)C[C@H]1c1cccc(O)c1` (racemic) [Compound 23, rac-trans-Z-3-(5-Benzylidene-2-dimethylaminomethyl-cyclohexyl)-phenol], 88%.

Regarding `COc1cccc([C@@H]2C/C(=C/c3cccc(C(=O)O)c3)CC[C@@H]2CN(C)C)c1.Cl` (racemic) [Compound 26, rac-cis-E-3-[4-Dimethylaminomethyl-3-(3-methoxy-phenyl)-cyclohexylidenemethyl]-benzoic acid], the “% inhibition of the writhing reactions (10 mg/kg i.v.)” value turned out to be 87%. Turning to `CCOC(=O)c1cccc(/C=C2/CC[C@H](CN(C)C)[C@H](c3cccc(OC)c3)C2)c1` (racemic) [Compound 30, rac-cis-Z-3-[4-Dimethylaminomethyl-3-(3-methoxy-phenyl)-cyclohexylidenemethyl]-benzoic acid ethyl ester], the inhibition in vivo at 10 mg/kg worked out at 84%.

With `CCN(CC)C(=O)c1cccc(/C=C2\CCC(CN(C)C)C(c3cccc(OC)c3)C2)c1` (racemic) [Compound 32], the inhibition in vivo at 10 mg/kg was determined as 100%. In the case of `CCN(CC)C(=O)c1cccc(/C=C2\CC[C@H](CN(C)C)[C@H](c3cccc(OC)c3)C2)c1.Cl` (racemic) [Compound 35, rac-cis-E-3-[4-Dimethylaminomethyl-3-(3-methoxy-phenyl)-cyclohexylidenemethyl]-N,N-diethyl-benzamide], the “% inhibition of the writhing reactions (10 mg/kg i.v.)” value was found to be 100%. For the compound `CCN(CC)C(=O)c1cccc(/C=C2/CC[C@@H](CN(C)C)[C@H](c3cccc(OC)c3)C2)c1` (racemic) [Compound 36, rac-trans-Z-3-[4-Dimethylaminomethyl-3-(3-methoxy-phenyl)-cyclohexylidenemethyl]-N,N-diethyl-benzamide], the inhibition in vivo at 10 mg/kg is 100%. Turning to `COc1cccc(C2=C/C(=C\c3cccc(C(=O)O)c3)CCC2CN(C)C)c1` (centres unmarked) [Compound 14, Z-3-[4-Dimethylaminomethyl-3-(3-methoxy-phenyl)-cyclohex-2-enylidenemethyl]-benzoic acid], the inhibition in vivo at 10 mg/kg is 94%. The same measure, in the same setting: the result for `COc1cccc(C2=C/C(=C/c3cccc(C(=O)O)c3)CCC2CN(C)C)c1` (centres unmarked) [Compound 15, E-3-[4-Dimethylaminomethyl-3-(3-methoxy-phenyl)-cyclohex-2-enylidenemethyl]-benzoic acid] reads 100%. `COc1cccc(C2=C/C(=C/c3cccc(CO)c3)CCC2CN(C)C)c1` (centres unmarked) [Compound 16, E-{3-[4-dimethylaminomethyl-3-(3-methoxy-phenyl)-cyclohex-2-enylidenemethyl]-phenyl}-methanol]: the inhibition in vivo at 10 mg/kg came out at 98%. Same read-out and setting: the result for `COc1cccc(C2=C/C(=C/c3cccc(C(=O)OC(C)(C)C)c3)CCC2CN(C)C)c1` (centres unmarked) [Compound 21, E-3-[4-Dimethylaminomethyl-3-(3-methoxy-phenyl)-cyclohex-2-enylidenemethyl]-benzoic acid tert-butyl ester] reads 79%.

`CN(C)CC1CC/C(=C\c2cccc(CO)c2)C=C1c1cccc(O)c1` (centres unmarked) [Compound 22, E-3-[6-Dimethylaminomethyl-3-(3-hydroxymethyl-benzylidene)-cyclohex-1-enyl]-phenol]: the inhibition in vivo at 10 mg/kg is 93%. The same measure, in the same setting: the result for `CN(C)CC1=C(c2cccc(O)c2)C/C(=C\c2cccc(CO)c2)CC1` [Compound 24, Z-3-[2-dimethylaminomethyl-5-(3-hydroxymethyl-benzylidene)-cyclohex-1-enyl]-phenol] reads 100%. With `COc1cccc(C2=C/C(=C\c3cccc(CO)c3)CCC2CN(C)C)c1` (centres unmarked) [Compound 25, Z-{3-[4-Dimethylaminomethyl-3-(3-methoxy-phenyl)-cyclohex-2-enylidenemethyl]-phenyl}-methanol], the inhibition in vivo at 10 mg/kg is 100%. Take `CCOC(=O)c1cccc(/C=C2/C=C(c3cccc(OC)c3)C(CN(C)C)CC2)c1` (centres unmarked) [Compound 33, E-3-[4-Dimethylaminomethyl-3-(3-methoxy-phenyl)-cyclohex-2-enylidenemethyl]-benzoic acid ethyl ester]: the inhibition in vivo at 10 mg/kg came to 90%. For `CCN(CC)C(=O)c1cccc(/C=C2\C=C(c3cccc(OC)c3)C(CN(C)C)CC2)c1` (centres unmarked) [Compound 34, Z-3-[4-Dimethylaminomethyl-3-(3-methoxy-phenyl)-cyclohex-2-enylidenemethyl]-N,N-diethyl-benzamide], the inhibition in vivo at 10 mg/kg was 78%. Regarding `COC(=O)c1cccc(/C=C2/C=C(c3cccc(O)c3)C(CN(C)C)CC2)c1` (centres unmarked) [Compound 37, E-3-[4-dimethylaminomethyl-3-(3-hydroxy-phenyl)-cyclohex-2-enylidenemethyl]-benzoic acid methyl ester], the inhibition in vivo at 10 mg/kg came out at 91%. The same measure, in the same setting: the result for `COc1cccc(C2=C/C(=C\c3cccc(C(=O)OCC(C)C)c3)CCC2CN(C)C)c1` (centres unmarked) [Compound 39, Z-3-[4-Dimethylaminomethyl-3-(3-methoxy-phenyl)-cyclohex-2-enylidenemethyl]-benzoic acid isobutyl ester] reads 78%; that for `CN(C)CC1CC/C(=C/c2cccc(C(=O)O)c2)C=C1c1cccc(O)c1` (centres unmarked) [Compound 48, Z-3-[4-Dimethylaminomethyl-3-(3-hydroxy-phenyl)-cyclohex-2-enylidenemethyl]-benzoic acid], 98%.
